From US20240358705A1, “COMPOSITIONS AND METHODS FOR TREATMENT OF CANCER” (Board of Supervisors of Louisiana State University and …, priority 2021, published 2024)

Tests used:
Type in all cases: cell-based, mouse
OT-I CD8 T cells = experiment: In vitro cytotoxicity assay (E.G7-OVA target cells); details: CD8 T cells treated 72 hours (10 μM printed for GLPG1205)
Experimental: Lymph nodes and spleen were isolated from wild-type C57BL/6N mice. Tissue was mechanically dissociated with the back of a syringe plunger and passed through a […]. […] Treated cells were incubated at 37° C., 5% CO2 for the designed study duration. Treated OT-I CD8 T cells were prepared following the in vitro T cell activation method. Non-target EL4 cells (CFSE low—0.2 μM) and target E.G7-OVA cells (CFSE high—[…]) were prepared following the CFSE labeling protocol. Cells were subsequently washed, pelleted, resuspended at 1×10^6 cells/ml, and mixed at 1:1 ratio. 100 μl of the mixed cells were plated into a 96-well flat bottom plate.

CD8 T cells [1] = experiment: Annexin/PI apoptosis staining, CD8; details: 3 μM or 10 μM, 72 hours, vs DMSO
Experimental: (§1) Lymph nodes and spleen were isolated from wild-type C57BL/6N mice. Tissue was mechanically dissociated with the back of a syringe plunger and passed through a 70 M filter. […] Treated cells were incubated at 37° C., 5% CO2 for the designed study duration.
Treated CD3 T cells were prepared following the in vitro T cell activation method and incubated for 72 hours at 37° C., 5% CO2.

CD8 T cells [2] = experiment: CD8 T cell activation markers by flow cytometry; details: 72 hours
Experimental: as §1, with “duration. […] After staining, cells were pelleted, resuspended and run by a BD FACSymphony A3 flow cytometer.” for “duration.”

CD4 T cells [3] = experiment: CD4 T cell activation markers by flow cytometry; details: 72 hours
Experimental: as §1, with “duration. […] After staining, cells were pelleted, resuspended and run by a BD FACSymphony A3 flow cytometer.” for “duration.”

CD3 T cells = experiment: Cytokine/chemokine quantification (Milliplex); details: 72 hours
Experimental: Lymph nodes and spleen were isolated from wild-type C57BL/6N mice. Tissue was mechanically dissociated with the back of a syringe plunger and passed through a […] filter. […] Treated cells were incubated at 37° C., 5% CO2 for the designed study duration. […] Culture supernatant was harvested and clarified by centrifugation at 2000 RPMI for five minutes. […] Cytokines and chemokines were quantified using a Milliplex mouse cytokine/chemokine magnetic bead panel (Millipore […]32) on a Luminex MAGPIX system with undiluted samples following the manufacturer's instructions.

CD8 T cells [4] = experiment: CD8 T cell differentiation by flow cytometry; details: 72 hours
Experimental: as §1, with “duration. […] After staining, cells were pelleted, resuspended and run by a BD FACSymphony A3 flow cytometer.” for “duration.”

CD4 T cells [5] = experiment: CD4 T cell differentiation by flow cytometry; details: 72 hours; for naïve CD4 T cell compartment, reduction vs DMSO: trend not found to be significant
Experimental: as §1, with “duration. […] After staining, cells were pelleted, resuspended and run by a BD FACSymphony A3 flow cytometer.” for “duration.”

CD8 T cells [6] = experiment: XFe ATP rate assay, CD8 T cells; details: 10 μM, 72 hours
Experimental: as §1
Treated CD8 T cell were prepared following the in vitro T cell activation method and incubated for 72 hours at 37° C., 5% CO2. Treated BM-MDSCs were prepared followed the in vitro BM-MDSCs differentiation method. The XFe ATP rate assay preparation and analysis was conducted following the manufacturer's user guide and instructions. […] Treated cells were removed from culture, pelleted and resuspended in warm assay medium at a concentration of 3×10^6 cells/ml (1.5×10^5 cells/well) for CD8 T cells and 2.6×10^6 cells/ml (1.3×10^5 cells/well) for BM-MDSCs. Cells were adhered to the culture plate by centrifugation 200×G, for one minute with zero brake per the manufacturer's instructions for immobilization of non-adherent cells (Agilent, Santa Clara, CA). […] Results were procured using the Seahorse XF real-time ATP rate assay report generator.

CD8 T cells [7] = experiment: Quantitative PCR of glycolysis enzymes; details: 3 μM and 10 μM, 48 hours
Experimental: as §1

O=c1nc(OC[C@@H]2COCCO2)cc2n1CCc1cc(C#CC3CC3)ccc1-2 [GLPG1205, 9-Cyclopropylethynyl-2-((S)-1-[1,4]dioxan-2-ylmethoxy)-6,7-dihydropyrimido[6,1-a]isoquinolin-4-one]
killing capacity compared to DMSO control (percent specific lysis) (OT-I CD8 T cells): significantly improved killing capacity
CD8 apoptosis (Annexin/PI) (CD8 T cells [1]): significantly reduced CD8 apoptosis
CD25 expression, increase vs DMSO (CD8 T cells [2]; 3 μM): 21%
CD69 expression, increase vs DMSO (CD8 T cells [2]; 3 μM): 11.24%
CTLA-4, increase vs DMSO (CD8 T cells [2]; 3 μM): 50.31%
LAG-3, increase vs DMSO (CD8 T cells [2]; 3 μM): 11.72%
PD-1, increase vs DMSO (CD8 T cells [2]; 3 μM): 10.02%
intracellular IFNγ, increase vs DMSO (CD8 T cells [2]; 3 μM): 51.23%
CD25 expression, increase vs DMSO (CD8 T cells [2]; 10 μM): 25.58%
CD69 expression, increase vs DMSO (CD8 T cells [2]; 10 μM): 14.59%
CTLA-4, increase vs DMSO (CD8 T cells [2]; 10 μM): 81.92%
LAG-3, increase vs DMSO (CD8 T cells [2]; 10 μM): 13.15%
PD-1, increase vs DMSO (CD8 T cells [2]; 10 μM): 13.91%
intracellular IFNγ, increase vs DMSO (CD8 T cells [2]; 10 μM): 61.55%
CD25 expression, increase vs DMSO (CD4 T cells [3]; 3 μM): 14.28%
CTLA4 expression, increase vs DMSO (CD4 T cells [3]; 3 μM): 30.31%
CD25 expression, increase vs DMSO (CD4 T cells [3]; 10 μM): 11.37%
CTLA4 expression, increase vs DMSO (CD4 T cells [3]; 10 μM): 51.16%
Eotaxin (CCL11) levels, increase vs DMSO (CD3 T cells; 3 μM): 19.87%
G-CSF, increase vs DMSO (CD3 T cells; 3 μM): 16.64%
GM-CSF, increase vs DMSO (CD3 T cells; 3 μM): 32.93%
IL-1P, increase vs DMSO (CD3 T cells; 3 μM): 20.06%
IL-2 production, increase vs DMSO (CD3 T cells; 3 μM): 51.36%
IL-3 secretion, increase vs DMSO (CD3 T cells; 3 μM): 31.91%
IL-4 secretion, increase vs DMSO (CD3 T cells; 3 μM): 26.55%
IL-6, increase vs DMSO (CD3 T cells; 3 μM): 30.71%
IL-9, increase vs DMSO (CD3 T cells; 3 μM): did not elicit any significant changes
IL-10, increase vs DMSO (CD3 T cells; 3 μM): 52.24%
IL-12(p40) levels, increase vs DMSO (CD3 T cells; 3 μM): 16.99%
IL-15 secretion, increase vs DMSO (CD3 T cells; 3 μM): 16.91%
IP-10 (CXCL10) secretion, increase vs DMSO (CD3 T cells; 3 μM): 28.52%
KC (CXCL1) concentrations, increase vs DMSO (CD3 T cells; 3 μM): 19.27%
LIF, increase vs DMSO (CD3 T cells; 3 μM): 41.71%
TNFα, increase vs DMSO (CD3 T cells; 3 μM): 39.64%
VEGF, increase vs DMSO (CD3 T cells; 3 μM): 51.99%
Eotaxin (CCL11) levels, increase vs DMSO (CD3 T cells; 10 μM): 16.57%
G-CSF, increase vs DMSO (CD3 T cells; 10 μM): 26.52%
IL-2 production, increase vs DMSO (CD3 T cells; 10 μM): 31.1%
IL-3 secretion, increase vs DMSO (CD3 T cells; 10 μM): 38.29%
IL-4 secretion, increase vs DMSO (CD3 T cells; 10 μM): did not elicit an effect
IL-6, increase vs DMSO (CD3 T cells; 10 μM): 28.38%
IL-9, increase vs DMSO (CD3 T cells; 10 μM): 19.94%
IL-10, increase vs DMSO (CD3 T cells; 10 μM): 58.46%
IL-12(p40) levels, increase vs DMSO (CD3 T cells; 10 μM): 21.77%
IL-15 secretion, increase vs DMSO (CD3 T cells; 10 μM): 15.05%
IP-10 (CXCL10) secretion, increase vs DMSO (CD3 T cells; 10 μM): 73.65%
KC (CXCL1) concentrations, increase vs DMSO (CD3 T cells; 10 μM): 25.62%
LIF, increase vs DMSO (CD3 T cells; 10 μM): 52.21%
LIX (CXCL5), increase vs DMSO (CD3 T cells; 10 μM): 20.94%
MCP-1 (CCL2), increase compared to DMSO control (CD3 T cells; 10 μM): 21.29%
RANTES (CCL5), increase vs DMSO (CD3 T cells; 10 μM): 29.8%
TNFα, increase vs DMSO (CD3 T cells; 10 μM): 50.91%
VEGF, increase vs DMSO (CD3 T cells; 10 μM): 71.18%
effector/memory CD8 compartment (CD62L−, CD44+), average increase compared to DMSO control (CD8 T cells [4]; 3 μM): 23.57%
naïve CD8 T cell compartment (CD62L+, CD44−), average reduction compared to DMSO control (CD8 T cells [4]; 3 μM): 32.54%
effector/memory CD8 compartment (CD62L−, CD44+), average increase compared to DMSO control (CD8 T cells [4]; 10 μM): 37.93%
naïve CD8 T cell compartment (CD62L+, CD44−), average reduction compared to DMSO control (CD8 T cells [4]; 10 μM): 74.69%
effector/memory CD4 T cells, increase compared to DMSO control (CD4 T cells [5]; 3 μM): 31.55%
naïve CD4 T cell compartment, reduction vs DMSO (CD4 T cells [5]; 3 μM): 41.57%
effector/memory CD4 T cells, increase compared to DMSO control (CD4 T cells [5]; 10 μM): 39.79%
naïve CD4 T cell compartment, reduction vs DMSO (CD4 T cells [5]; 10 μM): 45.61%
percent of ATP generated by OXPHOS (CD8 T cells [6]; DMSO 49%): 39.7%
percent of ATP generated by glycolysis (CD8 T cells [6]; DMSO 51%): 60.3%
ATP production rate through mitochondrial OXPHOS (mitoATP) (CD8 T cells [6]; DMSO 392.74): 486.75 pmol/min
ATP production rate through glycolysis (glycoATP) (CD8 T cells [6]; DMSO 409.61): 737.62 pmol/min
total ATP production rate (CD8 T cells [6]; DMSO control 816.19): 1224.27 pmol/min
OCR, ECAR and PER (CD8 T cells [6]; vs DMSO): raises the overall OCR, ECAR, and PER
gene expression of enzymes in glycolytic pathway compared to DMSO control (CD8 T cells [7]): significant dose-dependent increase
